Columns and labels:
[1] = tested on: E. coli (ATCC 25922); assay: Time kill assay in saline at pH 3.5 (Example 27); assay type: cell-based; settings: for Log10 CFU/mL: pH 3.5
Experimental: Log10 5 CFU of E. coli (ATCC 25922) were suspended in saline. Additionally, a sample of the saline only was prepared as a vehicle control (V.C.). Solutions of Nu-3, Nu-8, and Nu-10 at varying concentrations were adjusted to pH 3.5 with citric acid and added to the E. coli suspensions. At each time point (0, 1, 2.5, 5, 10, and 20 minutes), the treated bacterial suspensions were plated and incubated for 24 hrs, and each plate was read to determine the CFU count.
Tables 12-14 provide the time kill assay data for Nu-3 (Table 12), Nu-8 (Table 13) and Nu-10 (Table 14) against E. coli.

[2] = tested on: Escherichia coli (strain CFT073, TPPS 1041); assay: Urinary tract infection model in BALB/c mice, initial efficacy (Example 10); assay type: in vivo; settings: 1025 mg/kg pH 3.5 transurethral at 24 hr
Excerpt: Female BALB/c mice (20-22 g) ordered from Envigo are acclimated to housing conditions and handled in accordance with Animal Use Protocol (AUP) number TP-08. Animals are fed irradiated Teklad Global 29 18 Rodent Diet and water ad libitum. Mice are housed 6/cage in static cages with irradiated ⅛″ Teklad corn cobbedding 7902 inside bioBubble® clean rooms that provide H.E.P.A filtered air into the bubble environment at 100 complete air changes per hour. The environment is controlled to a temperature range of 74°±4° F. and a humidity range of 30-70%. All procedures carried out in this experiment are conducted in compliance with the laws, regulations, and guidelines of the National Institutes of Health and with the approval of the TransPharm Preclinical Solutions Animal Care and Use Committee.
A clinical isolate of Escherichia coli (strain CFT073, TPPS 1041) are procured from the University of Michigan.
The organism is grown overnight at 37° C. in ambient atmosphere on trypticase soy agar plates supplemented with 5% sheep blood cells. The culture is aseptically swabbed and transferred to tubes of trypticase soy broth. The optical density is determined at 600 nm. The culture is diluted to provide an inoculum of approximately 7.5 log10 CFU per mouse in a volume of 30 μL. Instillation of the bacterial challenge constituted time 0 hour for the study. Inoculum counts are estimated before inoculation by optical density and confirmed after inoculation by dilution and back counts.
One hour prior to bacterial challenge, water is removed from animal cages. […]
The primary endpoint used to assess progress of the infection is mean bacterial burden per gram of urinary bladder tissue. […] Colony forming units (CFU) are enumerated and the total bacterial burden per gram of urinary bladder tissue homogenate is calculated.
The geometric mean CFU, along with standard error of the mean (SEM), are calculated using Microsoft Excel and bar charts are prepared for the data using GraphPad Prism v. […]

[3] = tested on: E. coli ATCC 25922 or P. aeruginosa K2732; assay: Bacterial cytological profiling (Example 6), cell viability, strain not stated; assay type: cell-based; settings: within minutes, from initial 10^9 CFU/mL
Experimental: This bacterial cytological profiling (BCP) study uses methods and materials described previously by Nonejuie, P., Burkart, M., Poglianoa, K., Pogiano, J. (2013). Bacterial cytological profiling rapidly identifies the cellular pathways targeted by antibacterial molecules. Proc. Natl. Acad. Sci. U.S.A. 110(40):16169-16174. doi: 10.1073/pnas.1311066110.
Wild type strains of E. coli ATCC 25922 or P. aeruginosa K2732 are grown in rich media (unbuffered 2× Lysogeny broth [LB]) at 30 C to an OD600˜0.4. These cultures are then split and each sample treated with the appropriate concentration of Nu-8 in unbuffered or buffered LB (final mixture OD600˜0.1). Cells exposed without Nu-8 are buffered to pH 4 with phosphoric acid.
The BCP is performed in LB media buffered to pH 4. The minimum inhibitory concentration (MIC) is measured for Nu-3, Nu-4, Nu-5, and Nu-8 against each bacterial strain. As one of ordinary skill in the art understands, minimum inhibitory concentrations are the lowest concentration of an antimicrobial that will inhibit the visible growth of a microorganism after overnight incubation. […] Cellular viability is assayed at three time points (5 minutes and 4 and 24 h following the onset of treatment).

SMILES: CCCCOP(=O)(O)OC[C@H]1O[C@@H](n2ccc(N)nc2=O)C[C@@H]1OP(=O)(O)OCCCC [Nu-8, sodium ((2R,3S,5R)-5-(4-amino-2-oxopyrimidin-1(2H)-yl)-3-((butoxyoxidophosphor-yl)oxy)tetrahydrofuran-2-yl)methyl butyl phosphate]
- Log10 CFU/mL ([1]; 2.5% solution, 0 min): 5.20 Log10 CFU/mL
- Log10 CFU/mL ([1]; 2.5% solution, 1 min): 4.93 Log10 CFU/mL
- Log10 CFU/mL ([1]; 2.5% solution, 2.5 min): 4.90 Log10 CFU/mL
- Log10 CFU/mL ([1]; 2.5% solution, 5 min): 4.93 Log10 CFU/mL
- Log10 CFU/mL ([1]; 2.5% solution, 10 min): 4.90 Log10 CFU/mL
- Log10 CFU/mL ([1]; 2.5% solution, 20 min): 4.93 Log10 CFU/mL
- Log10 CFU/mL ([1]; 5% solution, 0 min): 5.20 Log10 CFU/mL
- Log10 CFU/mL ([1]; 5% solution, 1 min): 4.88 Log10 CFU/mL
- Log10 CFU/mL ([1]; 5% solution, 2.5 min): 4.92 Log10 CFU/mL
- Log10 CFU/mL ([1]; 5% solution, 5 min): 4.90 Log10 CFU/mL
- Log10 CFU/mL ([1]; 5% solution, 10 min): 4.95 Log10 CFU/mL
- Log10 CFU/mL ([1]; 5% solution, 20 min): 4.90 Log10 CFU/mL
- Log10 CFU/mL ([1]; 10% solution, 0 min): 5.20 Log10 CFU/mL
- Log10 CFU/mL ([1]; 10% solution, 1 min): 4.86 Log10 CFU/mL
- Log10 CFU/mL ([1]; 10% solution, 2.5 min): 4.79 Log10 CFU/mL
- Log10 CFU/mL ([1]; 10% solution, 5 min): 4.76 Log10 CFU/mL
- Log10 CFU/mL ([1]; 10% solution, 10 min): 4.71 Log10 CFU/mL
- Log10 CFU/mL ([1]; 10% solution, 20 min): 4.75 Log10 CFU/mL
- kill of the bacteria ([1]; concentration of 10%, at 20 mins): modest kill
- mean bladder CFU burden ([2]; 20 minutes post-treatment): 2.9 log10 CFU
- mean bladder CFU burden ([2]; 60 minutes post-treatment): 3.7 log10 CFU
- cell viability [3]: < 10^2 CFU/mL

From patent US12054509B2, “Antimicrobial compounds, compositions, and uses thereof” (Lakewood Amedex, Inc., priority 2017, dated 2024)
